This is an account of results in patent publication US9102697B2, “Trioxacarcins and uses thereof” (President and Fellows of Harvard College, priority 2010, dated 2015).

Data set [1] in a line: Storage and solution stability.
In data set [2] the test system is self-complementary duplex 12-mer d(AATTACGTAATT) (SEQ ID NO: 1). The data set is described as follows: DNA alkylation detected by non-denaturing DNA-gel electrophoresis with in-gel fluorescence. It counts as biochemical. The settings on record: oligonucleotide 100 μM; at the lowest concentration of DC-45-A2 (printed 1 mM); 3 h at 23 °C.
Data set [3] can be described thus: Water solubility. The conditions noted are these: attenuated by saturation with sodium chloride.
The subject of data set [4] is nuclei of H460 cells. The data set can be described thus: Fluorescence microscopy of labeled H460 cells. It counts as cell-based. The conditions noted are these: 0.4 μM, 5 h at 37 °C, co-stain TO-PRO-3. On the procedure:
Fluorescence images of nuclei of H460 cells labeled with DC-45-A2 [4.0 μM] or dideoxy-DC-45-A2 [0.4 μM] for 5 h at 37° C. is provided in FIG. 15. […] The scale bar represents 10 μm.
Experimental Details for Fluorescence Microscopy: H460 cells were grown on 22 mm glass coverslips and allowed to attach for 24 h. Subconfluent H460 cells (50-60% confluency) were treated with drugs of desired concentration and incubated at 37° C. for 5 h. The coverslips were washed three times with warm PBS. The cells were then fixed with 4% paraformaldehyde in PBS at 23° C. for 15 min. At 23° C., the cells were permeablized with 0.1% Triton-X100 in PBS for 15 min and blocked with 5% BSA for 40 min. After two washes with PBS, the cells were incubated with 0.2 µM TO-PRO-3 (Invitrogen) in PBS at 23° C. for 15 min. The coverslips were washed three times with PBS and mounted with Mowiol on microscope slides. Fluorescent images were captured on an Olympus IX71 inverted microscope equipped with a 60× water-immersion objective, a Nikon Intensilight Illuminator, and an Andor iXon EMCCD camera. Imaging data of DC-45-A2 and dideoxy DC-45-A2 were collected with a 387/11 nm excitation filter and a 510/84 nm emission filter purchased from Semrock. TO-PRO-3 dye was imaged using Cy5 channels. The images were complied and colorized using ImageJ software.

Consider DC-45-A2, for which the stability in solution result in data set [1] (in solution at 23 °C) is “slow decomposition over hours”. The stability on storage result in data set [1] (stored neat at −25 °C with exclusion of light) was “stable”. In addition, the “fluorescent DC-45-A2-DNA complex, in-gel fluorescence prior to ethidium bromide staining” value in data set [2] is listed as “clearly observed”. Moreover, in data set [3], the water solubility result is listed as “appreciable water solubility”.
As for Dideoxy-DC-45-A2, the localization in cells entry in data set [4] is on record as “co-localizes with nuclear DNA”.
